# From ChEMBL document CHEMBL5050844 (2019)
# What was measured:
# [1] = molecular target: T1, E3 ubiquitin-protein ligase CBL-B (Homo sapiens, UniProt Q13191); experiment: Inhibition of N-terminal Avi-tagged human CBL-B (36 to 427 residues) incubated with 60 nM Src kinase for 1.5 hrs followed by incubation with fluorescently labeled UbcH5B-Ub for 1 hr and measured by TR-FRET assay; type: single protein
# [2] = Induction of anti-CD3/CD28 antibodies-stimulated human T cell activation at 0.3 uM assessed fold increase in CD25 expression measured by ELISA assay; type: functional, T cell line
# [3] = Induction of activation of human CD56+ CD3- NK cells co-cultured with human K562 cells in 1:1 ratio and assessed as increase in IFN-gamma secretion at 1 uM measured by ELISA assay; type: functional, Natural killer cell
# [4] = Induction of activation of human CD56+ CD3- NK cells co-cultured with human K562 cells in 1:1 ratio and assessed as increase in TNF-alpha secretion at 1 uM measured by ELISA assay; type: functional, Natural killer cell
# [5] = Induction of anti-CD3/CD28 antibodies-stimulated human CD4+ T cell activation at 10 uM assessed fold increase in cell proliferation measured by flow cytometry analysis; type: functional, T cell line
# [6] = Induction of activation of human CD56+ CD3- NK cells co-cultured with human K562 cells in 1:1 ratio and assessed as increase in MIP1beta secretion at 10 uM measured by ELISA assay; type: functional, Natural killer cell
# [7] = Induction of anti-CD3 antibodies-stimulated human T cell activation at 1.11 uM assessed fold increase in IFN-gamma secretion measured by ELISA assay; type: functional, T cell line; note: reference of the scale not given here
# [8] = Induction of activation of human CD56+ CD3- NK cells co-cultured with human K562 cells in 5:1 ratio and assessed as increase in IFN-gamma secretion at 1 uM measured by ELISA assay; type: functional, Natural killer cell
# [9] = Induction of activation of human CD56+ CD3- NK cells co-cultured with human K562 cells in 5:1 ratio and assessed as increase in IFN-gamma secretion at 10 uM measured by ELISA assay; type: functional, Natural killer cell
# [10] = Induction of anti-CD3 antibodies-stimulated human T cell activation at 1.11 uM assessed fold increase in GM-CSF secretion measured by ELISA assay; type: functional, T cell line; note: reference of the scale not given here
# [11] = Induction of anti-CD3 antibodies-stimulated human T cell activation at 10 uM assessed fold increase in GM-CSF secretion measured by ELISA assay; type: functional, T cell line; note: reference of the scale not given here
# [12] = Induction of anti-CD3 antibodies-stimulated human T cell activation at 1 uM assessed fold increase in CD25 expression measured by ELISA assay; type: functional, T cell line; note: reference of the scale not given here
# [13] = Induction of anti-CD3 antibodies-stimulated human CD8+ T cell activation at 1.11 uM assessed fold increase in CD69 expression measured by flow cytometry analysis; type: functional, T cell line; note: reference of the scale not given here
# [14] = Induction of anti-CD3 antibodies-stimulated human CD8+ T cell activation at 10 uM assessed fold increase in CD69 expression measured by flow cytometry analysis; type: functional, T cell line; note: reference of the scale not given here
# [15] = Induction of anti-CD3 antibodies-stimulated human exhausted CD8+ T cell activation assessed fold increase in CTLA4 expression measured by flow cytometry analysis; type: functional, T cell line; note: reference of the scale not given here
# [16] = Induction of activation of human CD56+ CD3- NK cells co-cultured with human K562 cells in 5:1 ratio and assessed as increase in TNF-alpha secretion at 1 uM measured by ELISA assay; type: functional, Natural killer cell
# [17] = Induction of activation of human CD56+ CD3- NK cells co-cultured with human K562 cells in 5:1 ratio and assessed as increase in MIP1beta secretion at 1 uM measured by ELISA assay; type: functional, Natural killer cell
# [18] = Induction of anti-CD3 antibodies-stimulated human exhausted T cell activation assessed fold increase in GM-CSF secretion measured by ELISA assay; type: functional, T cell line; note: reference of the scale not given here
# [19] = Induction of anti-CD3/CD28 antibodies-stimulated human T cell activation at 1 uM assessed fold increase in CD25 expression measured by ELISA assay; type: functional, T cell line
# [20] = Induction of anti-CD3/CD28 antibodies-stimulated human anergic T cell activation at 1.11 uM assessed fold increase in IFN-gamma secretion measured by ELISA assay; type: functional, T cell line
# [21] = molecular target: T1, E3 ubiquitin-protein ligase CBL-B; experiment: Binding affinity towards N-terminal biotinylated Avi-tagged human CBL-B (36 to 427 residues) measured by surface plasmon resonance assay
# [22] = Induction of activation of human CD56+ CD3- NK cells co-cultured with human K562 cells in 5:1 ratio and assessed as increase in TNF-alpha secretion at 10 uM measured by ELISA assay; type: functional, Natural killer cell
# [23] = Induction of anti-CD3/CD28 antibodies-stimulated human CD8+ T cell activation at 1.11 uM assessed fold increase in cell proliferation measured by flow cytometry analysis; type: functional, T cell line
# [24] = Induction of activation of human CD56+ CD3- NK cells co-cultured with human K562 cells in 1:1 ratio and assessed as increase in TNF-alpha secretion at 10 uM measured by ELISA assay; type: functional, Natural killer cell
# [25] = Induction of activation of human CD56+ CD3- NK cells co-cultured with human K562 cells in 1:1 ratio and assessed as increase in MIP1beta secretion at 1 uM measured by ELISA assay; type: functional, Natural killer cell
# [26] = Induction of activation of human CD56+ CD3- NK cells co-cultured with human K562 cells in 5:1 ratio and assessed as increase in MIP1beta secretion at 10 uM measured by ELISA assay; type: functional, Natural killer cell
# [27] = Induction of anti-CD3 antibodies-stimulated human CD8+ T cell activation at 1.11 uM assessed fold increase in cell proliferation measured by flow cytometry analysis; type: functional, T cell line; note: reference of the scale not given here
# [28] = Induction of anti-CD3 antibodies-stimulated human CD8+ T cell activation in immunocompetent mouse assessed fold increase in CD25 expression at 90 mg/kg, po administered twice a day; type: functional; note: reference of the scale not given here
# [29] = Induction of anti-CD3 antibodies-stimulated human CD4+ T cell activation in immunocompetent mouse assessed fold increase in CD25 expression at 90 mg/kg, ip administered twice a day; type: functional; note: reference of the scale not given here
# [30] = Induction of anti-CD3 antibodies-stimulated human CD8+ T cell activation in immunocompetent mouse assessed fold increase in CD25 expression at 90 mg/kg, ip administered thrice a day; type: functional; note: reference of the scale not given here
# [31] = Induction of anti-CD3 antibodies-stimulated human CD8+ T cell activation in immunocompetent mouse assessed fold increase in CD25 expression at 135 mg/kg, po administered twice a day; type: functional; note: reference of the scale not given here
# [32] = Induction of anti-CD3 antibodies-stimulated human CD4+ T cell activation in immunocompetent mouse assessed fold increase in CD25 expression at 90 mg/kg, po administered twice a day; type: functional; note: reference of the scale not given here
# [33] = Induction of anti-CD3 antibodies-stimulated human CD8+ T cell activation in immunocompetent mouse assessed fold increase in CD25 expression at 180 mg/kg, po administered twice a day; type: functional; note: reference of the scale not given here
# [34] = Induction of anti-CD3 antibodies-stimulated human CD4+ T cell activation in immunocompetent mouse assessed fold increase in CD25 expression at 135 mg/kg, po administered twice a day; type: functional; note: reference of the scale not given here
# [35] = Induction of anti-CD3 antibodies-stimulated human CD4+ T cell activation in immunocompetent mouse assessed fold increase in CD25 expression at 180 mg/kg, po administered twice a day; type: functional; note: reference of the scale not given here
# T1 sequence (Q13191 whole entry, the tested form may be a part): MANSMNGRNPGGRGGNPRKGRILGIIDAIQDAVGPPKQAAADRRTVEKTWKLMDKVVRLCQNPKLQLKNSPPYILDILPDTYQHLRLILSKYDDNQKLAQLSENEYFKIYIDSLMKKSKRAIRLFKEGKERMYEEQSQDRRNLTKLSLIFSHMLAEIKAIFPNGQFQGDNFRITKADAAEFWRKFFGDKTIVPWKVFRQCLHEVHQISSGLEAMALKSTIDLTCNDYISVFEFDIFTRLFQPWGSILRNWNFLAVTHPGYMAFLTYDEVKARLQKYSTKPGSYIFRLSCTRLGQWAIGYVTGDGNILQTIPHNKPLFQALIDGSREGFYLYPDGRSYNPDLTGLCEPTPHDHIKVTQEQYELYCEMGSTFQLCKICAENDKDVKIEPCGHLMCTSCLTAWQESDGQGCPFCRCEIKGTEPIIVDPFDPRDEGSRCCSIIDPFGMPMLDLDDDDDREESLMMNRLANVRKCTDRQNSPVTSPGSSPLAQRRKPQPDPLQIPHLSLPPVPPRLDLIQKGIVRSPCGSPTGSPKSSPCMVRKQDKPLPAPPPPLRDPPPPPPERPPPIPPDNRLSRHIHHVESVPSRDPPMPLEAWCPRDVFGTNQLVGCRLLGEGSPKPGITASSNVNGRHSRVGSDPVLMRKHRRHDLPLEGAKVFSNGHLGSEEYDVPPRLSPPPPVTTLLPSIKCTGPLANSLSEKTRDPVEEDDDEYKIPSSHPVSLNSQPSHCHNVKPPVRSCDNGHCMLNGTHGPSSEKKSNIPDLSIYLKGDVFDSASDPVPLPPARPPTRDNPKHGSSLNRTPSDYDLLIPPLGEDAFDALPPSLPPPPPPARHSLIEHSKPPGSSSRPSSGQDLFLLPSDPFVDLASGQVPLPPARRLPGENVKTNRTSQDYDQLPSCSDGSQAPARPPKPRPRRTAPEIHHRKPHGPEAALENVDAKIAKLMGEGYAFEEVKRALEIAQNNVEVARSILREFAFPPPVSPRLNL
Compound,IC50 [1],fold change (FC) [2],fold change (FC) [3],fold change (FC) [4],fold change (FC) [5],fold change (FC) [6],fold change (FC) [7],fold change (FC) [8],fold change (FC) [10],fold change (FC) [11],fold change (FC) [12],fold change (FC) [13],fold change (FC) [14],fold change (FC) [15],fold change (FC) [18],fold change (FC) [19],fold change (FC) [20],fold change (FC) [23],fold change (FC) [24],fold change (FC) [27],also measured
Cn1cnnc1C(F)(F)[C@](C)(F)c1cccc(N2Cc3c(cc(C(=O)N4CC[C@H](O)C4)cc3C(F)(F)F)C2=O)c1,< 0.1 µM,1.01,<=1,1.01,>4,<=1,<=2,<=1,<=1.5,2.01,0.801,<=1.2,1.201,<=1.4,<=1.4,1.01,<=2.5,<=2,1.01,<=2,fold change (FC) [9]: 1.01; fold change (FC) [16]: 1.01; fold change (FC) [17]: <=1; fold change (FC) [22]: 1.01; fold change (FC) [25]: <=1; fold change (FC) [26]: 1.01
C[C@H](Cc1nncn1C)c1cccc(N2Cc3c(cccc3C(F)(F)F)C2=O)c1.Cl,< 0.1 µM,1.31,1.01,<=1,3.01,1.01,<=2,1.01,<=1.5,<=1.5,0.601,<=1.2,<=1.2,1.41,<=1.4,1.51,2.51,<=2,<=1,<=2,fold change (FC) [9]: >=5; fold change (FC) [28]: <1; fold change (FC) [16]: <=1; fold change (FC) [17]: <=1; fold change (FC) [22]: <=1; fold change (FC) [29]: 1; fold change (FC) [25]: <=1; fold change (FC) [26]: 1.01
Cc1cc(C(=O)Nc2cccc([C@H](C)Cc3nncn3C)c2)nc(C2CC2)n1,< 0.1 µM,1.51,2.01,2.01,>4,2.01,2.01,2.01,2.01,2.01,>=1.001,<=1.2,1.401,>1.61,>1.61,>=1.76,<=2.5,<=2,2.01,<=2,fold change (FC) [30]: 1; fold change (FC) [31]: 1; fold change (FC) [32]: 1; fold change (FC) [9]: >=5; fold change (FC) [16]: 2.01; fold change (FC) [17]: 2.01; fold change (FC) [33]: 1; Kd [21]: < 0.1 µM; fold change (FC) [22]: >=5; fold change (FC) [34]: 1; fold change (FC) [35]: 1.51; fold change (FC) [25]: 1.01; fold change (FC) [26]: 2.01

# The next lines start with results.
IC50 [1],Compound,fold change (FC) [2],fold change (FC) [3],fold change (FC) [4],fold change (FC) [5],fold change (FC) [6],fold change (FC) [7],fold change (FC) [8],fold change (FC) [10],fold change (FC) [11],fold change (FC) [12],fold change (FC) [13],fold change (FC) [14],fold change (FC) [15],fold change (FC) [18],fold change (FC) [19],fold change (FC) [20],fold change (FC) [23],fold change (FC) [24],fold change (FC) [27],also measured
< 0.1 µM,C[C@H](Cc1nncn1C)c1cccc(N2Cc3c(cc(CN4CC[C@H](F)C4)cc3C(F)(F)F)C2=O)c1,1.01,2.01,2.01,>4,1.01,3.01,2.01,2.01,>4,>=1.001,1.401,1.401,>1.61,>1.61,1.31,>4.01,>4,2.01,>4,fold change (FC) [9]: >=5; fold change (FC) [16]: 2.01; fold change (FC) [17]: 1.01; Kd [21]: < 0.1 µM; fold change (FC) [22]: >=5; fold change (FC) [25]: 1.01; fold change (FC) [26]: 1.01
< 0.1 µM,Cc1cc(C(=O)Nc2cccc(C3(Cc4nncn4C)COC3)c2)nc(C2CC2)n1,1.31,–,–,>4,–,2.01,–,2.01,2.01,>=1.001,1.201,1.401,<=1.4,>1.61,>=1.76,2.51,3.01,>=5,>4,fold change (FC) [30]: 1; fold change (FC) [31]: 1; fold change (FC) [32]: 1; fold change (FC) [28]: 1; fold change (FC) [33]: 1; Kd [21]: < 0.1 µM; fold change (FC) [34]: 1.51; fold change (FC) [29]: 1; fold change (FC) [35]: 1.51
< 0.1 µM,Cn1cnnc1CC1(c2cccc(N3Cc4c(cc(CN5CCC6(CC6)C5)cc4C(F)(F)F)C3=O)c2)COC1,1.31,–,–,>4,–,>4,–,2.01,>4,>=1.001,1.401,1.401,>1.61,1.41,1.31,2.51,>4,>=5,>4,fold change (FC) [30]: 1; fold change (FC) [31]: 1; fold change (FC) [32]: 1; fold change (FC) [28]: 1; fold change (FC) [33]: 1; fold change (FC) [34]: 1.51; fold change (FC) [29]: 1; fold change (FC) [35]: 2.01
